Here are results for one compound from publication PMC6934184, “Selective DNA-PKcs inhibition extends the therapeutic index of localized radiotherapy and chemotherapy” (The Journal of Clinical Investigation, 2019).

Structures are written as SMILES.

The test addresses T1, FER (Homo sapiens, UniProt P16591).
T1 construct: purchased Thermo Fisher Scientific (Life Technologies) SelectScreen
Nature of the test: SelectScreen Z'LYTE. Format: biochemical. The gist of the method: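 NU5455 was profiled across the SelectScreen Broad panel of kinase activity and binding assays. Z'LYTE reactions such as CSF1R ran at apparent Km ATP, while the Adapta CAMK1 assay used ATP listed as 10. Values are given as percent.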

T1 sequence (P16591 whole entry): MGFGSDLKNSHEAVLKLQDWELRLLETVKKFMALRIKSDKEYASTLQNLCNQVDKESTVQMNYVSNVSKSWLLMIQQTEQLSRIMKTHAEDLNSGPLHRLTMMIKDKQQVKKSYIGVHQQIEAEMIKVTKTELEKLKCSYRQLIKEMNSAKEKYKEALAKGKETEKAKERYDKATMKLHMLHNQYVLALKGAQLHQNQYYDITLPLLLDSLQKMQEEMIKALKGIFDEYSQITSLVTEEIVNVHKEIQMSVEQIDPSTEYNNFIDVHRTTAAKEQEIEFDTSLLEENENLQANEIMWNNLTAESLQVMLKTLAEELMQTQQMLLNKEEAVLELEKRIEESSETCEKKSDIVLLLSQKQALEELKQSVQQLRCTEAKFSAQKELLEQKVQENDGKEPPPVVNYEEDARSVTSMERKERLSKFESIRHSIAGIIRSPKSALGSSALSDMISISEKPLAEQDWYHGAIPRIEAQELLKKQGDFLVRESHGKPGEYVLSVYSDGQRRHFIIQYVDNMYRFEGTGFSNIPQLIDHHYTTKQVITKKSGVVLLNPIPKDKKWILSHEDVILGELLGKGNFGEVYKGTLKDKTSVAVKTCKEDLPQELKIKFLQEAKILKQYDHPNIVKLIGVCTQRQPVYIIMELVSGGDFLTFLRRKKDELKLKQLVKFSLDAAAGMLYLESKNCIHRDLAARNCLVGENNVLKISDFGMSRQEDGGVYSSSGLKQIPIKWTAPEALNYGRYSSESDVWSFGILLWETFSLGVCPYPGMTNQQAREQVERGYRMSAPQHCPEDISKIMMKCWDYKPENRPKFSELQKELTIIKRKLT

As usually defined, the inhibition is the relative decrease from the control value, in per cent. Lower therefore signals a weak effect. `CN(C(=O)CN1CCOCC1)c1ccc2sc3c(-c4cccc5c(=O)cc(N6CC7CCC(C6)O7)oc45)cccc3c2c1` [NU5455]: the inhibition at 1 µM was 7.1%.
